Key:
Assay in all cases: KINOMEscan competition binding
Details in all cases: compound 10.0 µM
PTK6 (human) = PTK6 (human) (UniProt Q13882)
EPHB1 (human) = EPHB1 (human) (UniProt P54762)
RPS6KA6 KD1 (human) = RPS6KA6 KD1 (human) (UniProt Q9UK32)
NEK9 (human) = NEK9 (human) (UniProt Q8TD19)
WEE2 (human) = WEE2 (human) (UniProt P0C1S8)
YES1 (human) = YES1 (human) (UniProt P07947)
AURKC (human) = AURKC (human) (UniProt Q9UQB9)
CDC42BPG (human) = CDC42BPG (human) (UniProt Q6DT37)
KDR (human) = KDR (human) (UniProt P35968)
TSSK1B (human) = TSSK1B (human) (UniProt Q9BXA7)
RIPK4 (human) = RIPK4 (human) (UniProt P57078)
MAPK10 (human) = MAPK10 (human) (UniProt P53779)
[1] = system: KIT (human), P10721 [V559D]
IGF1R (human) = IGF1R (human) (UniProt P08069)
AKT1 (human) = AKT1 (human) (UniProt P31749)
PIK3C2B (human) = PIK3C2B (human) (UniProt O00750)
PIM3 (human) = PIM3 (human) (UniProt Q86V86)
EPHA5 (human) = EPHA5 (human) (UniProt P54756)
DYRK1B (human) = DYRK1B (human) (UniProt Q9Y463)
CHEK2 (human) = CHEK2 (human) (UniProt O96017)
FGFR2 (human) = FGFR2 (human) (UniProt P21802)
ACVR1 (human) = ACVR1 (human) (UniProt Q04771)
TXK (human) = TXK (human) (UniProt P42681)
ACVR2A (human) = ACVR2A (human) (UniProt P27037)
RIOK2 (human) = RIOK2 (human) (UniProt Q9BVS4)
NEK6 (human) = NEK6 (human) (UniProt Q9HC98)
ALK (human) = ALK (human) (UniProt Q9UM73)
CAMK1G (human) = CAMK1G (human) (UniProt Q96NX5)
MAPK9 (human) = MAPK9 (human) (UniProt P45984)
GSK3A (human) = GSK3A (human) (UniProt P49840)
PIK3CB (human) = PIK3CB (human) (UniProt P42338)
MKNK2 (human) = MKNK2 (human) (UniProt Q9HBH9)
MAPK13 (human) = MAPK13 (human) (UniProt O15264)
NTRK2 (human) = NTRK2 (human) (UniProt Q16620)
SRPK3 (human) = SRPK3 (human) (UniProt Q9UPE1)
NTRK1 (human) = NTRK1 (human) (UniProt P04629)
MLTK (human) = MLTK (human) (UniProt Q9NYL2)
MAP4K4 (human) = MAP4K4 (human) (UniProt O95819)
TAOK1 (human) = TAOK1 (human) (UniProt Q7L7X3)
MARK3 (human) = MARK3 (human) (UniProt P27448)

KIT (human), P10721 [V559D], sequence (P10721 whole entry V559D, looked up): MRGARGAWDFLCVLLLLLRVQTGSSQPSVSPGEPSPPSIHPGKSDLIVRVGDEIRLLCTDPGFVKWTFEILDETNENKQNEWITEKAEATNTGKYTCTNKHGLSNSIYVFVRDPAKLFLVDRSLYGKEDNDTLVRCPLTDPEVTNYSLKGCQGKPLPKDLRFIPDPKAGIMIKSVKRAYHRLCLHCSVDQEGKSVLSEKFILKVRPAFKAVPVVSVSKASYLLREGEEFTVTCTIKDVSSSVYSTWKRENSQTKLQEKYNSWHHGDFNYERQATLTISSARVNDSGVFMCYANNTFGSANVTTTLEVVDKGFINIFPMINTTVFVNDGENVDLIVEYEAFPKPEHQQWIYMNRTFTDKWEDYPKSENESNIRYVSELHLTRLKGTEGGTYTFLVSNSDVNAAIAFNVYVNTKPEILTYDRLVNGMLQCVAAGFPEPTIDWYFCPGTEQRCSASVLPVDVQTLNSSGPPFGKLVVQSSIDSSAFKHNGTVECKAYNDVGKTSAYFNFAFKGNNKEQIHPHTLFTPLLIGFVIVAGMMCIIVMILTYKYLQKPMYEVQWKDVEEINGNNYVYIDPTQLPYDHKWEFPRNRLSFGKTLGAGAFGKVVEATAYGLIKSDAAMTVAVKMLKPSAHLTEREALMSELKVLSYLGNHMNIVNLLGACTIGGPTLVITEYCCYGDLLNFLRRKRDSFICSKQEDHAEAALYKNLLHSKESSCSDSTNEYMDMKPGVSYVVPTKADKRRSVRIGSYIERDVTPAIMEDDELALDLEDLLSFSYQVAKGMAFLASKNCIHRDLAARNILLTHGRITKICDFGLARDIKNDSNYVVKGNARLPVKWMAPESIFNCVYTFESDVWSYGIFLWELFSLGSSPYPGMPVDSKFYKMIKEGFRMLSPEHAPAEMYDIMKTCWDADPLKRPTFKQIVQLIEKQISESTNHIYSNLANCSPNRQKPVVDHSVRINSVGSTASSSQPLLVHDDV
NEK6 (human), sequence (Q9HC98 whole entry, looked up): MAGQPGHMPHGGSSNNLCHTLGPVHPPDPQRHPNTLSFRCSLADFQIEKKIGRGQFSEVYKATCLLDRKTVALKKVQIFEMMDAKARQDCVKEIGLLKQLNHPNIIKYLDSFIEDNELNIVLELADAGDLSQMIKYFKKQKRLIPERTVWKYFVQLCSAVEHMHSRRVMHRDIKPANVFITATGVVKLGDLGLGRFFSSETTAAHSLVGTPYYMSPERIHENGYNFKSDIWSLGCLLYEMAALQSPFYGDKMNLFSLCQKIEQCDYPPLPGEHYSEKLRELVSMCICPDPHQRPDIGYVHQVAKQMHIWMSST
RIOK2 (human), sequence (Q9BVS4 whole entry, looked up): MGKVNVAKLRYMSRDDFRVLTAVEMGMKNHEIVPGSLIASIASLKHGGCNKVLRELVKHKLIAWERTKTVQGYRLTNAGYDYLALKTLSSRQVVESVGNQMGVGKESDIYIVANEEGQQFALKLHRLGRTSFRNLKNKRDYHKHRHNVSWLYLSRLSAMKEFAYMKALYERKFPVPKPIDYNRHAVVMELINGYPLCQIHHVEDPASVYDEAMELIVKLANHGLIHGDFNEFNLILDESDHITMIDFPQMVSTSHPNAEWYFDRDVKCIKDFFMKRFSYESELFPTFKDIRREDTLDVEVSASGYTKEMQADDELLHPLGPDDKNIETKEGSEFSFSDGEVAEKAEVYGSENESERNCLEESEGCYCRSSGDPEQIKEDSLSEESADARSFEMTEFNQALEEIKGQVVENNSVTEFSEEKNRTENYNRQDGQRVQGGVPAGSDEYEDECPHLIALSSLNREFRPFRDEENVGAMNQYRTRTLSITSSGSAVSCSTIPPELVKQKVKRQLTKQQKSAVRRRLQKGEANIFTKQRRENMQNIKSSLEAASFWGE
DYRK1B (human), sequence (Q9Y463 whole entry, looked up): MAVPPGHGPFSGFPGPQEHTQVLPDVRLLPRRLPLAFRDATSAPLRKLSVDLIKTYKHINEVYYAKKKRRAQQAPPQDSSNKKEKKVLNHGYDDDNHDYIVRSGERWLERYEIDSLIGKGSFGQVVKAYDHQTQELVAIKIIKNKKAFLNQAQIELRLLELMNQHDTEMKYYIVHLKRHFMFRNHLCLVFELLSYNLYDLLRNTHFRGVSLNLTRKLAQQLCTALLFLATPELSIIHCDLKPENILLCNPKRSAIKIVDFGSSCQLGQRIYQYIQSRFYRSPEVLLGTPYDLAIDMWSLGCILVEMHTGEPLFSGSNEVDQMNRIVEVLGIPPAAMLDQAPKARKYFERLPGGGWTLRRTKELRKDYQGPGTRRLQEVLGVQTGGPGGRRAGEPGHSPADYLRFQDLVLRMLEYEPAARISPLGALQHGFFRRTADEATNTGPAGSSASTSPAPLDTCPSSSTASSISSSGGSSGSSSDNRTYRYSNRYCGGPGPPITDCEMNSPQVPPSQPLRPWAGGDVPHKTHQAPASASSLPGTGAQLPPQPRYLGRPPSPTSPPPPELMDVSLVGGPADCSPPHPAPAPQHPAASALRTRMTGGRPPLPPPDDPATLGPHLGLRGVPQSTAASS
KDR (human), sequence (P35968 whole entry, looked up): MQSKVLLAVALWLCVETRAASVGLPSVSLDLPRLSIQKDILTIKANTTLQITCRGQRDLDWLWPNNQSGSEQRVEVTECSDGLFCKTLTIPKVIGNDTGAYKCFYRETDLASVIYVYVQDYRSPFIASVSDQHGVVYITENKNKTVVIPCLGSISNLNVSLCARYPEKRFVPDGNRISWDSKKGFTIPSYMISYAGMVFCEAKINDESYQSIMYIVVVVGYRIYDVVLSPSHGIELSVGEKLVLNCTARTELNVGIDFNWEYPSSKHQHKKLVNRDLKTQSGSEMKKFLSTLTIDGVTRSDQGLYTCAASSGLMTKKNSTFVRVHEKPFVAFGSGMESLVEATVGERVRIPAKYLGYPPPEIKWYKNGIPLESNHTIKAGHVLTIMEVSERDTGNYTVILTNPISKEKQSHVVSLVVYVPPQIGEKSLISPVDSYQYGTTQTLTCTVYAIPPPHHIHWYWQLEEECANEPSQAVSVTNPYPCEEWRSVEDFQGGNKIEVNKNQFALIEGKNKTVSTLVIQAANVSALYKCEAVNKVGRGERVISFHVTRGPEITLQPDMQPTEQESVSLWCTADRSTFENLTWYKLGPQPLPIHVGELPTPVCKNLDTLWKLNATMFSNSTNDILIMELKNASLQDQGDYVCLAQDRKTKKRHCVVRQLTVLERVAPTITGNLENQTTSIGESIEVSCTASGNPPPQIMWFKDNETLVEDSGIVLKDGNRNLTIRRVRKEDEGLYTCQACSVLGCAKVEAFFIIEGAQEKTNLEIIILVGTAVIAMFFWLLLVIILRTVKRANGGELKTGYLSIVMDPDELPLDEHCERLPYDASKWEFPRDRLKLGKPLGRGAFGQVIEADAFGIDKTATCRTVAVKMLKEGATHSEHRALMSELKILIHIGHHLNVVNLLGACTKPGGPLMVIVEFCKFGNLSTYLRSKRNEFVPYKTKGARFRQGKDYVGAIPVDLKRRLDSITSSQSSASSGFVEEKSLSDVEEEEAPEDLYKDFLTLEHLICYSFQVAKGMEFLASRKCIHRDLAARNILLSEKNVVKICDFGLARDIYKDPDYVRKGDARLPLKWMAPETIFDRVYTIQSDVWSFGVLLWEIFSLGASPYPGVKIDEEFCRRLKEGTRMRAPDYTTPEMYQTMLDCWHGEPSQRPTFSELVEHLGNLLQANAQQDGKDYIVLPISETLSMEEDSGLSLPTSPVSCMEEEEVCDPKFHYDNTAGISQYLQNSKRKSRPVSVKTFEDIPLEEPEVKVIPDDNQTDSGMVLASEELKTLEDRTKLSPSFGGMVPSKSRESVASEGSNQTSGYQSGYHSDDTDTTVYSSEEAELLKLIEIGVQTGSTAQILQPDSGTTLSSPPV
AKT1 (human), sequence (P31749 whole entry, looked up): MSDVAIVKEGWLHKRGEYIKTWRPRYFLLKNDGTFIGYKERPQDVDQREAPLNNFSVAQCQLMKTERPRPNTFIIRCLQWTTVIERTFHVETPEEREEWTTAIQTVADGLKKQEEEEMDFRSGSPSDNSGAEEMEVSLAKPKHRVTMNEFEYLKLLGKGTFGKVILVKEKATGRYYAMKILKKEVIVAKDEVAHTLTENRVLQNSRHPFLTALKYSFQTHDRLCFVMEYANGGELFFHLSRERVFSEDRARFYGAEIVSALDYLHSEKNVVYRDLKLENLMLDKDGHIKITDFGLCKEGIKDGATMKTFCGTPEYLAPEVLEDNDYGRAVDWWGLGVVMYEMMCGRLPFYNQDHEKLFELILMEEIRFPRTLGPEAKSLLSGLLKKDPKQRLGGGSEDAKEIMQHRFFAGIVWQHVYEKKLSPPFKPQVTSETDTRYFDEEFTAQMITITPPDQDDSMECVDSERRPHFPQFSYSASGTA
WEE2 (human), sequence (P0C1S8 whole entry, looked up): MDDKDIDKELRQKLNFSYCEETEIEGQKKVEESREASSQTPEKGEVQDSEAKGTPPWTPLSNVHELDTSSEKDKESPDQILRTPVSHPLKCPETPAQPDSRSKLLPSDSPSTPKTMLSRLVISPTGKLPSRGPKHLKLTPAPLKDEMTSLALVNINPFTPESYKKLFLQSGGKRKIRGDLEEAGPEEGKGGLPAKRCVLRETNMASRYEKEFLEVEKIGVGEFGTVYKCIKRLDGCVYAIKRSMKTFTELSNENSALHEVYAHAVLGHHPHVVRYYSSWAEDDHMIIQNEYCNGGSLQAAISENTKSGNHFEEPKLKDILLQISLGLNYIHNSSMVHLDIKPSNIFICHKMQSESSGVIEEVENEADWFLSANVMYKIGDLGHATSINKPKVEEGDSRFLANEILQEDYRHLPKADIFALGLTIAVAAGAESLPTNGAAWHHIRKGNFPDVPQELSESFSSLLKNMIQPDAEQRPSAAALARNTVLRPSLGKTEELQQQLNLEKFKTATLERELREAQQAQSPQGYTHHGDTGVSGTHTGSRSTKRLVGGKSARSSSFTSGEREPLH

Row | Compound | kinase still bound, per cent of control (PTK6 (human)) | kinase still bound, per cent of control (EPHB1 (human)) | kinase still bound, per cent of control (RPS6KA6 KD1 (human)) | kinase still bound, per cent of control (NEK9 (human)) | kinase still bound, per cent of control (WEE2 (human)) | kinase still bound, per cent of control (YES1 (human)) | kinase still bound, per cent of control (AURKC (human)) | kinase still bound, per cent of control (CDC42BPG (human)) | kinase still bound, per cent of control (KDR (human)) | kinase still bound, per cent of control (TSSK1B (human)) | kinase still bound, per cent of control (RIPK4 (human)) | kinase still bound, per cent of control (MAPK10 (human)) | kinase still bound, per cent of control [1] | kinase still bound, per cent of control (IGF1R (human)) | kinase still bound, per cent of control (AKT1 (human)) | kinase still bound, per cent of control (PIK3C2B (human)) | kinase still bound, per cent of control (PIM3 (human)) | kinase still bound, per cent of control (EPHA5 (human)) | kinase still bound, per cent of control (DYRK1B (human)) | kinase still bound, per cent of control (CHEK2 (human)) | other results
1 | Cc1ccc(NC(=O)c2cccc(C(C)(C)C#N)c2)cc1Nc1ccc2ncn(C)c(=O)c2c1 | 94% | 1% | 87% | 100% | 100% | 4.6% | 100% | 98% | 2.3% | 79% | 98% | 73% | 0.05% | 95% | 100% | 100% | 98% | 1% | 100% | 92% | kinase still bound, per cent of control (FGFR2 (human)): 55%; kinase still bound, per cent of control (ACVR1 (human)): 100%; kinase still bound, per cent of control (TXK (human)): 5.6%; kinase still bound, per cent of control (ACVR2A (human)): 100%; kinase still bound, per cent of control (RIOK2 (human)): 100%; kinase still bound, per cent of control (NEK6 (human)): 100%; kinase still bound, per cent of control (ALK (human)): 93%; kinase still bound, per cent of control (CAMK1G (human)): 100%; kinase still bound, per cent of control (MAPK9 (human)): 1.8%; kinase still bound, per cent of control (GSK3A (human)): 100%; kinase still bound, per cent of control (PIK3CB (human)): 100%; kinase still bound, per cent of control (MKNK2 (human)): 99%; kinase still bound, per cent of control (MAPK13 (human)): 9.6%; kinase still bound, per cent of control (NTRK2 (human)): 77%; kinase still bound, per cent of control (SRPK3 (human)): 100%; kinase still bound, per cent of control (NTRK1 (human)): 98%; kinase still bound, per cent of control (MLTK (human)): 6.5%; kinase still bound, per cent of control (MAP4K4 (human)): 10%; kinase still bound, per cent of control (TAOK1 (human)): 91%; kinase still bound, per cent of control (MARK3 (human)): 89%
2 | O=C1Nc2ccc(I)cc2/C1=C/c1cc(Br)c(O)c(Br)c1 | 85% | 100% | 51% | 100% | 94% | 90% | 71% | 91% | 100% | 65% | 76% | 60% | 1.8% | 97% | 100% | 10% | 2% | 91% | 41% | 12% | kinase still bound, per cent of control (FGFR2 (human)): 59%; kinase still bound, per cent of control (ACVR1 (human)): 31%; kinase still bound, per cent of control (TXK (human)): 100%; kinase still bound, per cent of control (ACVR2A (human)): 100%; kinase still bound, per cent of control (RIOK2 (human)): 35%; kinase still bound, per cent of control (NEK6 (human)): 96%; kinase still bound, per cent of control (ALK (human)): 100%; kinase still bound, per cent of control (CAMK1G (human)): 44%; kinase still bound, per cent of control (MAPK9 (human)): 72%; kinase still bound, per cent of control (GSK3A (human)): 100%; kinase still bound, per cent of control (PIK3CB (human)): 100%; kinase still bound, per cent of control (MKNK2 (human)): 89%; kinase still bound, per cent of control (MAPK13 (human)): 100%; kinase still bound, per cent of control (NTRK2 (human)): 55%; kinase still bound, per cent of control (SRPK3 (human)): 7.8%; kinase still bound, per cent of control (NTRK1 (human)): 82%; kinase still bound, per cent of control (MLTK (human)): 84%; kinase still bound, per cent of control (MAP4K4 (human)): 4.2%; kinase still bound, per cent of control (TAOK1 (human)): 54%; kinase still bound, per cent of control (MARK3 (human)): 68%
3 | CN(C)C/C=C/C(=O)Nc1cccc(Nc2ncc3c(n2)N(C)c2ccccc2C(=O)N3C)c1 | 37% | 90% | 9.2% | 93% | 97% | 13% | 9.2% | 100% | 90% | 53% | 1% | 80% | 54% | 100% | 100% | 56% | 100% | 99% | 100% | 94% | kinase still bound, per cent of control (FGFR2 (human)): 13%; kinase still bound, per cent of control (ACVR1 (human)): 45%; kinase still bound, per cent of control (TXK (human)): 11%; kinase still bound, per cent of control (ACVR2A (human)): 57%; kinase still bound, per cent of control (RIOK2 (human)): 79%; kinase still bound, per cent of control (NEK6 (human)): 73%; kinase still bound, per cent of control (ALK (human)): 51%; kinase still bound, per cent of control (CAMK1G (human)): 52%; kinase still bound, per cent of control (MAPK9 (human)): 100%; kinase still bound, per cent of control (GSK3A (human)): 69%; kinase still bound, per cent of control (PIK3CB (human)): 32%; kinase still bound, per cent of control (MKNK2 (human)): 0.3%; kinase still bound, per cent of control (MAPK13 (human)): 61%; kinase still bound, per cent of control (NTRK2 (human)): 4%; kinase still bound, per cent of control (SRPK3 (human)): 63%; kinase still bound, per cent of control (NTRK1 (human)): 18%; kinase still bound, per cent of control (MLTK (human)): 79%; kinase still bound, per cent of control (MAP4K4 (human)): 50%; kinase still bound, per cent of control (TAOK1 (human)): 0.15%; kinase still bound, per cent of control (MARK3 (human)): 10%
